In the NIST ThermoML archive (doi:10.1016/j.jct.2013.05.029):

Experiment: refractive index (other wavelength) (dimensionless); xn = mol fraction of the nth substance listed
Conditions: 101 kPa, Liquid, Wavelength=633 nm, Standard Abbe refractometry

CCCCCCCCCC [decane] + COC(=O)OC
Conditions	refractive index
280.97 K, x2 = 0.517	1.4023
280.97 K, x2 = 0.915	1.3807
281.95 K, x2 = 0.537	1.4011
281.95 K, x2 = 0.913	1.3805
283 K, x2 = 0.549	1.4002
283 K, x2 = 0.903	1.3808
284.42 K, x2 = 0.581	1.3983
284.42 K, x2 = 0.89	1.3811
285.51 K, x2 = 0.615	1.3964
285.51 K, x2 = 0.876	1.3817
286.06 K, x2 = 0.63	1.3954
286.06 K, x2 = 0.867	1.382
286.31 K, x2 = 0.641	1.3948
286.31 K, x2 = 0.859	1.3825
286.44 K, x2 = 0.65	1.3943
286.44 K, x2 = 0.855	1.3827
286.64 K, x2 = 0.663	1.3936
286.64 K, x2 = 0.849	1.383
286.84 K, x2 = 0.671	1.3932
286.84 K, x2 = 0.842	1.3834
286.94 K, x2 = 0.677	1.3928
286.94 K, x2 = 0.837	1.3837
287.03 K, x2 = 0.689	1.3922
287.03 K, x2 = 0.831	1.3841
287.13 K, x2 = 0.692	1.392
287.13 K, x2 = 0.827	1.3843
287.21 K, x2 = 0.703	1.3914
287.21 K, x2 = 0.708	1.3911
287.21 K, x2 = 0.819	1.3847
287.21 K, x2 = 0.824	1.3844
287.23 K, x2 = 0.705	1.3913
287.23 K, x2 = 0.712	1.3909
287.23 K, x2 = 0.815	1.385
287.23 K, x2 = 0.82	1.3847
287.26 K, x2 = 0.716	1.3907
287.26 K, x2 = 0.817	1.3849
287.27 K, x2 = 0.712	1.3909
287.27 K, x2 = 0.813	1.3851
287.28 K, x2 = 0.716	1.3907
287.28 K, x2 = 0.817	1.3849
287.29 K, x2 = 0.716	1.3907
287.29 K, x2 = 0.809	1.3853
287.31 K, x2 = 0.72	1.3905
287.31 K, x2 = 0.814	1.385
287.32 K, x2 = 0.72	1.3905
287.32 K, x2 = 0.723	1.3903
287.32 K, x2 = 0.729	1.39
287.32 K, x2 = 0.804	1.3857
287.32 K, x2 = 0.806	1.3855
287.32 K, x2 = 0.809	1.3853
287.35 K, x2 = 0.725	1.3902
287.35 K, x2 = 0.731	1.3899
287.35 K, x2 = 0.735	1.3896
287.35 K, x2 = 0.741	1.3893
287.35 K, x2 = 0.796	1.3861
287.35 K, x2 = 0.799	1.3859
287.35 K, x2 = 0.803	1.3857
287.35 K, x2 = 0.809	1.3853
287.36 K, x2 = 0.737	1.3895
287.36 K, x2 = 0.798	1.386
287.37 K, x2 = 0.737	1.3895
287.37 K, x2 = 0.741	1.3893
287.37 K, x2 = 0.79	1.3865
287.37 K, x2 = 0.796	1.3861
